Assay results reported in patent US4067997A, “Synergistic microbecidal composition and method” (priority 1976, dated 1978).
≈ marks a conversion by molar mass, not a printed value. Read-outs that look alike come from different tables or passages of the source.

What was measured:
[1] = test system: Pneumococci; assay: MIC, broth dilution (Examples I/II); assay type: cell-based, pneumococcus (63001); conditions: Table 1, Pneumococci
Procedure: (§1) In order to establish comparative bactericidal and fungicidal results with homologous fatty acids, a series of experiments was performed with thirty straight-chain fatty acids and derivatives thereof. Eight different gram-negative and twelve different gram-positive organisms, representing a very broad spectrum of organisms, were used in these experiments including the fungus Candida (a yeast). Additionally, fatty acids were chosen to show the effects of saturation versus unsaturation, in the fatty acid claim. Standard solutions of the fatty acids and their derivatives were prepared by first dissolving the weighed compounds in 1 to 2 ml of 95% ethanol and immediately pouring this solution into 200 ml of Tripticase Soy Broth. These lipid compounds which are insoluble in water and broth precipitated into very small crystals or droplets. The tubes containing the suspension were warmed to approximately 70° C and were then placed in an ultrasonic tank for further solubilization of the lipid derivatives.
(§2) Standard solutions (or suspensions) at 1,000 μg/ml were twofold serially diluted with additional broth to a concentration of 125 μg/ml. A 4-ml amount of each dilution was then quickly, and with constant agitation, dispensed into appropriately labeled screw-capped glass tubes (16 by 125 mm). The tubes were sterilized with steam at 15 psi for 15 minutes. After sterilization, all tubes were cooled and incubated overnight at 35° C to insure sterility.
(§3) All compounds were compared on a molar (micromoles/milliliter) rather than on a mass basis. In the following lists of organisms used, those followed by a parenthetical number are registered with the American Type Culture Collection (ATCC); the remainder were isolates from Providence Hospital or Northland Laboratory.
(§4) One drop (0.04 ± 0.01 ml) of an 18-hr broth culture containing 10^7 and 10^9 organisms/ml was added to each dilution of the test compound, as well as to a tube of plain broth which served as the positive control. After inoculation, the contents of each tube were well mixed, and the tubes were incubated at 35° C in a 5% carbon dioxide + […] atmosphere.
(§5) The MIC is defined as the lowest concentration of compound at which no […] evidence of growth was observed when turbidity of the inoculated broth dilutions was compared with control tubes. […] Only a one-tube difference between the bactericidal and bacteriostatic concentrations was normally observed.
(§6) Standard solutions (1000 μg/ml) of three fatty acids and polyglycerol esters thereof were prepared as described in Example I. Also sucrose esters were prepared by transferring the weighed compounds (0.2 gm. dissolved in 1 ml absolute methanol) into 200 ml of sterile Trypticase Soy Broth (TSB). These standard solutions (1000 μg/ml) were twofold serially diluted with additional sterile broth to a concentration of 125 μg/ml. A 3.8 aliquot of each dilution was asceptically delivered into sterile screw-capped culture tubes. All tubes were incubated overnight at 36° C to insure sterility. The microorganisms used in this example were the same as those used in Example I.
(§7) The inoculum, 0.05 ml of an 13-24 hour TSB culture (approximately 10^9 organisms/ml) was asceptically delivered into all dilutions of the compounds, mixed well, and incubated at 36° C. A tube of inoculated broth without the compound served as a positive control and an uninoculated set of dilutions incubated along with the test dilutions, served as a negative control.
(§8) In those cases in which the test compound itself caused turbidity, an aliquot (0.015 ml) of the mixed broth was inoculated onto an agar plate and incubated at 36° C for examination, as described in Example I. The control procedure of Example I was also repeated. The lauric, capric, and oleic acids were used as internal controls and for comparison to Example I. The minimal inhibitory concentrations (μmole/ml) for the compounds studied are given in Tables 7 and 8.

[2] = test system: Streptococcus Group A; assay: MIC, broth dilution (Examples I/II); assay type: cell-based, beta-hemolytic streptococci Group A
Procedure: as §1, §2, §3, §4, §5, §6, §7, §8

[3] = test system: Streptococcus β-hemolytic Non-A; assay: MIC, broth dilution (Examples I/II); assay type: cell-based, beta-hemolytic streptococci non-group A
Procedure: as §1, §2, §3, §4, §5, §6, §7, §8

[4] = test system: Corynebacteria; assay: MIC, broth dilution (Examples I/II); assay type: cell-based, Corynebacterium sp. (10700)
Procedure: as §1, §2, §3, §4, §5, §6, §7, §8

[5] = test system: Nocardia asteroides; assay: MIC, broth dilution (Examples I/II); assay type: cell-based, Nocardia asteroids (3308); conditions: Table 1, Nocardia asteroides
Procedure: as §1, §2, §3, §4, §5, §6, §7, §8

[6] = test system: Micrococci; assay: MIC, broth dilution (Examples I/II); assay type: cell-based, Micrococcus sp.
Procedure: as §1, §2, §3, §4, §5, §6, §7, §8

[7] = test system: S. aureus; assay: MIC, broth dilution (Examples I/II); assay type: cell-based, Staphylococcus aureus
Procedure: as §1, §2, §3
One drop (0.04 ± 0.01 ml) of an 18-hr broth culture containing 10^7 and 10^9 organisms/ml was added to each dilution of the test compound, as well as to a tube of plain broth which served as the positive control. […]

[8] = test system: S. pyogenes; assay: Growth curve by optical density (Example IV, FIG. 3); assay type: cell-based, streptococcus pyogenes; conditions: 24 hours
Procedure: To a series of containers is added 40 ml of Trypticase Soy Broth and 0.5 ml of streptococcus pyogenes (10^8 organisms/ml). To respective containers are added the following: (1) 10 μg of glycerol 1-mono-laurinand 10 μg of glycerol dilaurin; (2) 5 μg of glycerol 1-mono-laurin and 5 μg of glycerol dilaurin; (3) 10 μg of glycerol 1-mono-laurin; and (4) 5 μg of glycerol 1-mono-laurin; and (5) a control without any additives. The rate of growth of the S. pyogenes was followed for 24 hours at 6 hour intervals by reading the optical density of the cultures at […] in a spectrophotometer.

[9] = test system: Group A Strep.; assay: MIC of potassium soaps of unsaturated fatty acids (Example III); assay type: cell-based, Group A β-hemolytic Streptococci; conditions: Table 10, Group A Strep.
[10] = test system: S. epidermidis; assay: MIC, broth dilution (Examples I/II); assay type: cell-based; conditions: Table 7, Staph epider.; > = no inhibition, max. tested
Procedure: as §1, §2, §3, §4, §5, §6, §7, §8

[11] = test system: Streptococcus Group D; assay: MIC, broth dilution (Examples I/II); assay type: cell-based; conditions: Table 7, Strep. Grp. D; > = no inhibition, max. tested
Procedure: as §1, §2, §3, §4, §5, §6, §7, §8

[12] = test system: Sarcina; assay: MIC, broth dilution (Examples I/II); assay type: cell-based, Sarcina lutea (9431); conditions: Table 7, Sarcina; > = no inhibition, max. tested
Procedure: as §1, §2, §3, §4, §5, §6, §7, §8

[13] = test system: Aspergillus niger; assay: MIC, agar dilution method (Example XVI); assay type: cell-based; conditions: Aspergillus niger
Description: (§9) In a manner similar to that described in Example V, the effectiveness of certain food-grade microbecides are compared with mono-esters in an agar dilution method. The very favorable results may be noted from Table 19.

[14] = test system: Bacillus subtilis; assay: MIC, agar dilution method (Example XVI); assay type: cell-based; conditions: Bacillus subtilis
Description: as §9

[15] = test system: Canadida albicans; assay: MIC, agar dilution method (Example XVI); assay type: cell-based
Description: as §9

[16] = test system: Escherichia coli; assay: MIC, agar dilution method (Example XVI); assay type: cell-based; conditions: Escherichia coli
Description: as §9

[17] = test system: Pseudomonas aeruginosa; assay: MIC, agar dilution method (Example XVI); assay type: cell-based; conditions: Pseudomonas aeruginosa
Description: as §9

[18] = test system: Staphylococcus aureus; assay: MIC, agar dilution method (Example XVI); assay type: cell-based; conditions: Staphylococcus aureus
Description: as §9

[19] = test system: nine gram-positive organisms and the yeast/fungus Candida; assay: MIC, broth dilution, over all organisms (Examples I/II); assay type: cell-based
Procedure: as §1, §2, §3
Staphylococcus aureus, S. epidermidis, beta-hemolytic streptococci (Group A and non-group A), group D streptococcus, Bacillus subtilis (6051), Sarcina lutea (9431), Micrococcus sp., Candida albicans, Nocardia asteroids (3308), Corynebacterium sp. (10700), and pneumococcus (63001).
as §4, §5
Table 5 presents a comparison of the C10 and C12 free acids and their glyceryl derivatives, and Table 6 gives the corresponding ranges of activity.
as §6
The inoculum, 0.05 ml of an 13-24 hour TSB culture (approximately 10^9 organisms/ml) was asceptically delivered into all dilutions of the compounds, mixed well, and incubated at 36° C. […]

[20] = Table 19, agar dilution, read-out: MIC

CC/C=C\C/C=C\C/C=C\CCCCCCCC(=O)O [Linolenic]
MIC [1]: 179 µM (≈ 49.8 µg/mL) | MIC ([2]; Table 1, Streptococcus Group A): 350 µM (≈ 97.5 µg/mL) | MIC ([3]; Table 1, Streptococcus β-hemolytic Non-A): 350 µM (≈ 97.5 µg/mL) | MIC ([4]; Table 1, Corynebacteria): 179 µM (≈ 49.8 µg/mL) | MIC [5]: 488 µM (≈ 136 µg/mL) | MIC ([6]; Table 1, Micrococci): 488 µM (≈ 136 µg/mL) | MIC ([7]; Table 1, S. aureus): 1790 µM (≈ 498 µg/mL)

glycerol dilaurin
Antimicrobial activity in words (growth curve) [8]: essentially inactive

CCCCCCCC=CCCC=CCCCCC(=O)O [.increment.^6 10]
MIC [9]: 10 µM

CCCCCC=CCC=CCCCCCCCC(=O)O [.increment.^9 12]
MIC [9]: 10 µM

Hexaglycerol monocaprate
MIC ([2]; Table 7, Strep. Grp. A): 190 µM | MIC ([3]; Table 7, Strep. β-hemo. Non-A): 790 µM | MIC ([4]; Table 7, Cornebacteria): 390 µM | MIC ([6]; Table 7, Micrococci): 790 µM | MIC [10]: > 1580 µM | MIC [11]: > 1580 µM | MIC [12]: > 1580 µM

CCCCCCC=CCCCC=CCCCCC(=O)O [.increment.^6 11]
MIC [9]: 20 µM

CCCOC(=O)c1ccc(O)cc1 [Propyl paraben]
MIC [13, 20]: 2500 µg/mL (≈ 13.9 mM) | MIC [14, 20]: 2500 µg/mL (≈ 13.9 mM) | MIC [15, 20]: 2500 µg/mL (≈ 13.9 mM) | MIC [16, 20]: 5000 µg/mL (≈ 27.7 mM) | MIC [17, 20]: > 10000 µg/mL | MIC [18, 20]: 2500 µg/mL (≈ 13.9 mM)

Decaglycerol monolaurate
MIC ([2]; Table 7, Strep. Grp. A): 260 µM | MIC ([3]; Table 7, Strep. β-hemo. Non-A): 530 µM | MIC ([4]; Table 7, Cornebacteria): 530 µM | MIC ([6]; Table 7, Micrococci): 530 µM | MIC [10]: > 1060 µM | MIC [11]: > 1060 µM | MIC [12]: > 1060 µM

Triglycerol monocaprate
MIC ([2]; Table 7, Strep. Grp. A): 150 µM | MIC ([3]; Table 7, Strep. β-hemo. Non-A): 630 µM | MIC ([4]; Table 7, Cornebacteria): 320 µM | MIC ([6]; Table 7, Micrococci): 1260 µM | MIC ([7]; Table 7, Staph aureus, > = no inhibition, max. tested): > 2500 µM | MIC [10]: > 2500 µM | MIC [11]: > 2500 µM | MIC [12]: 2500 µM

CCCCCC=CCCCC=CCCCCCC(=O)O [.increment.^7 12]
MIC [9]: 20 µM

CCCCCCCCCCCC(=O)OCC(O)CO (stereo not shown) [1-mono-laurin]
Activity relative to 2-mono-laurin [19]: as active as the 2-mono-laurin | Activity in words ([19]; Table 6 footnote): Highly active on all organisms except streptococcus Group D | Antimicrobial activity in words (growth curve) [8]: responsible for all antimicrobial activity | MIC [13]: > 2500 µg/mL | MIC [14]: 39 µg/mL (≈ 0.142 mM) | MIC [15]: > 2500 µg/mL | MIC [16]: > 2500 µg/mL | MIC [17]: > 2500 µg/mL | MIC [18]: 39 µg/mL (≈ 0.142 mM)
